Reference: EP2042178A1, “Ocular formulations comprising 5-chlorouracil and use thereof” (INSTITUT NATIONAL DE LA SANTE ET DE LA RECHERCHE MEDICALE …, priority 2007, dated 2009)
Values after ≈ are worked out from the molar mass of the structure shown. Where two headings read alike, the source gives them in different places.

Assays:
[1] = system: rabbit Tenon's capsule fibroblasts; settings: for cell death: sub-confluent fibroblasts, 24 hours
Description: Cells were seeded at a density of 2 x 10^4 cells / well until reaching subconfluency and were then treated with 5-chlorouracil (5-CU) or with 5-fluorouracil (5-FU) at different concentrations (0, 0.5, 5, 50, 500, 1'000 or 5'000 µg/ml) for 24 hours.
MTT (Sigma) (1mg/ml in PBS) was added to the wells and plates were incubated at 37°C for 1 hour. Isopropanol was then added and mixed thoroughly to dissolve the dark blue crystals and the plates were rapidly read on a BIO-RAD Model 450 Microplate reader, using a test wavelength of 570 nm and a reference wavelength of 630 nm.

[2] = system: human conjunctival cell line (Wong-Kilbourne derivative of Chang conjunctiva); assay: Neutral red test (cellular viability); format: cell-based; settings: for cell viability decrease: concentrations up to 10 µg/ml; for IC50: Homo sapiens, 72 hours of exposure
Description: (§1) Normal culture development was assessed daily by phase-contrast microscopy. Confluent cultures were removed by gentle trypsin incubation, and cells were counted. For cytotoxicity experiments, cells were seeded into 96-well culture plates (18'000 cells per well; Nunc, Roskild, Denmark) until sub-confluence (culture surface covering nearly 70%) and were then exposed to the different formulations. Experiments were performed by microplate cold light fluorometry (Fluorolite 1000 Dynex; Issy-les-Moulineaux, France), as previously validated (Debbasch et al., 2001, Invest. Ophthalmol. Vis. Sci., 42, 642-652). According to the recommendations of the European Center for the Validation of Alternative Methods (ECVAM) and to previously validated methods in the Chang cell line, two cellular markers were evaluated: cellular viability and chromatin condensation. Cellular viability was evaluated with a neutral red (Fluka, Ronkonkoma, NY) test with fluorometric detection (excitation: 535 nm; emission: 600 nm). Hoechst 33342 (Molecular Probes, Eugene, OR) is an intercalating dye, which allows the determination of the total chromatin quantity variations and the degree of chromatin condensation. […] was used on cells at a final concentration of 10 µg/ml (excitation: 360 nm; emission: 450 nm). 0.5 mg/ml propidium iodide (Roche Diagnostics Corp., Meylan, France) was added to the Hoechst solution, to control necrotic cells, as previously validated. The supravital uptake of Hoechst 33342 combined with extrusion of propidium iodide was used as an assay for apoptosis as described in Belloc et al., 1994, Cytometry, 17, 59-65. […] It is defined by a series of cellular changes: (a) the cell shrinks, looses contact with neighbouring cells or surrounding matrix and starts to display intracellular proteins on its surface; (b) the chromatin in the nucleus condenses and the DNA is cleaved into small fragments; (c) the plasma membrane then begins to show a bubbled appearance and small membrane bound bodies break off containing intracellular material which can include nuclear matter and cellular organelles. These fragments are known as "apoptotic bodies" which are quickly removed by phagocytes or by neighbouring cells.
In these experiments, cell viability and chromatin condensation were evaluated after a 24 and 72 hour-incubation, with […] of 5-chlorouracil as compared with the same concentrations of 5-fluorouracil. The value of IC50 (concentration inhibiting 50% of cell population) was used to compare 5-FU and 5-CU cytotoxicities. Dulbecco's minimum essential medium was used as a control, and was used to dilute the tested molecules.

rabbit fibroblasts = assay: Trypan blue exclusion test / cell counting, fibroblast proliferation; settings: for concentration at which inhibition of cell proliferation is significant: 24 hours exposure; for inhibition at 10 µg/mL / inhibition at 20 µg/mL / inhibition at 100 µg/mL: Oryctolagus cuniculus, Fibroblast, 24 h, read-out: inhibition of cell proliferation
[3] = same conditions, Heller et al., 2005; cited from earlier work
[4] = sub-conjunctival injection, cited from earlier work
[5] = system: human conjunctival cell line (Wong-Kilbourne derivative of Chang conjunctiva); assay: Hoechst 33342 test (chromatin condensation, with propidium iodide); format: cell-based; settings: for chromatin condensation: increasing concentrations >1 µg/ml; for chromatin condensation compared to control cells: up to 1 µg/ml
Description: as §1
The value of IC50 (concentration inhibiting 50% of cell population) was used to compare 5-FU and 5-CU cytotoxicities. Dulbecco's minimum essential medium was used as a control, and was used to dilute the tested molecules.

[6] = In vitro rate of release from POE IV formulation; format: physicochemical
Description: Formulations were prepared under a laminar airflow hood. […] The viscous mixture was conditioned in a 1.0 ml syringe, each sample being 200µl (240 mg). In a preliminary investigation, the in vitro rate of release of 5-CU was determined according to the procedure described by Merkli et al., 1998, J. Control. […] 5-FU in vitro rate of release from POE IV has also previously been described by Heller et al, 2005, Adv. Drug Delivery Rev., 57(14)2053-62.

[7] = Hoechst and neutral red results combined, 72 hours of exposure
[8] = Hoechst test, high concentrations

Structure (SMILES) | cell viability decrease ([2]; 24 hour-incubation) | IC50 [2] [µg/mL] | concentration at which inhibition of cell proliferation is significant (rabbit fibroblasts) [µg/mL] | inhibition at 10 µg/mL (rabbit fibroblasts) [%] | inhibition at 20 µg/mL (rabbit fibroblasts) [%] | inhibition at 100 µg/mL (rabbit fibroblasts) [%] | chromatin condensation compared to control cells ([5]; 24 hours) | type of cell death induced [5, 7] | type of cell death induced [5, 8] | further results
O=c1[nH]cc(F)c(=O)[nH]1 [5-FU, 5-fluorouracil] | about 20% | 7 (≈ 0.0538 mM) | ≥ 10 | 28 | 40 | 43 | no significant difference | apopto-necrotic cell death | necrotic cell death | cell death ([1]; 5 µg/ml): 39.1%; cell death ([1]; 50 µg/ml): 51%; cell death ([2]; 24 hour-incubation, 100 µg/ml): 55%; cellular viability ([2]; 72 hour-incubation, 1 µg/ml): significantly decreased; in vitro rate of release from POE IV [3]: 100 µg per day; corneal levels ([4]; at 1 hour): 20 µg/g; corneal levels ([4]; at 24 hours): 5 µg/g; time for which ID50 levels are maintained ([4]; at the injection site and 180° from it): up to 24 hours; chromatin condensation ([5]; 24 hours, P=0.0079): dose-dependant significant decrease; chromatin condensation ([5]; 72 hours, P=0.02): dose-dependant significant decrease
O=c1[nH]cc(Cl)c(=O)[nH]1 [5-CU, 5-chloro-1H-pyrimidine-2,4-dione] | about 20% | 2500 (≈ 17.1 mM) | ≥ 10 | 23 | 23 | 25 | no significant difference | apoptotic cell death | apoptotic cell death | times less toxic to non-proliferating cells than 5-FU ([1]; rabbit, 24 h): 1'000 times; cell death ([1]; 5'000 µg/ml): 33%; cell death ([2]; 24 hour-incubation, 1'000 µg/ml): 35%; cell death ([2]; 72 hour-incubation, 4 mg/ml (highest concentration)): 75%; daily release rate ([6]; 1% 5-CU from POE IV formulation, for up to forty days): approximately 8 µg/day; in vitro rate of release ([6]; from POE IV, 1% wt/wt, over a period of up to 40 days, preliminary investigation): 8 micrograms per day; Hoechst fluorescence compared with identical 5-FU concentrations ([5]; 24 hours, increasing concentrations up to 1'000 µg/ml, P=0.0079): very significant increase
